How the values were obtained:
[1] = system: hCD34+ hematopoietic progenitors; test: In vitro toxicity of natural estrogens for hematopoietic progenitors (hCD34+ culture, FACS subsets); format: cell-based, human; details: for toxicity for hematopoietic progenitor subpopulations: 10 nM to 500 μM, in vitro; for % CD34+/CD38− / % HSC / % MLP / % MPP: four days culture
Experimental: FIG. 9 relates the effect of different concentration of E1, E2, E3 and E4 in human hematopoietic progenitors. Human hematopoietic progenitors were culture in phenol red free media supplemented with 100 ng/mL SCF, 100 ng/ml FLT3L and 100 ng/ml TPO and different concentration of E1, E2, E3 and E4 (from 10 nM to 500 μM). FIG. 9A represents the fold increase of the number of hematopoietic cells after four days in culture. FIG. 9B indicates the total number of primitive hematopoietic progenitors (CD34^+/CD38^−) present in the culture, extrapolated from number of cells and the frequency of this population analyzed by FACS. […] Grey dashed lines point the value of control group, and red dashed lines indicate the initial values at day 0. (Kruskal-Wallis test; P<0.05, data from four independent experiments).
To assess the toxicity of the natural estrogens (E1, E2, E3 and E4) for hematopoietic progenitors, in vitro studies were performed. 5×10^4 hCD34^+ were cultured in a phenol red-free media, X-Vivo 20 (Lonza), in presence of 100 ng/ml SCF, 100 ng/ml FLT3L, 100 ng/ml TPO, 0.5% PS, 1% Glutamax (Thermofisher) and different concentrations of E1, E2, E3 or E4 (from 10 nM to 500 μM). Cell proliferation and immunophenotype of different hematopoietic subsets (CD34^+/CD38^−, HSC [CD34^+/CD38^−/CD45RA^−/CD90^+], Multipotent Progenitors [MPP, CD34^+/CD38^−/CD45RA^−/CD90^−], Multipotent Lymphoid Progenitors [MLP, CD34^+/CD38^−/CD45RA^+] were evaluated at day 0 and four days after culture.

human cord blood CD34+ [2] = test: Human engraftment in male NSG mice transplanted with a limited CD34+ cell dose (5×10^3); format: in vivo, mouse
Experimental: FIG. 6A indicates the level of human engraftment, which was raised by E4 administration. […] (Kruskal-Wallis test; P=0.1150, 7-10 mice per group). […] Three-four months later, the animals were sacrificed and the human hematopoietic engraftment was analyzed by FACS. Human hematopoietic population was identified as the cells positive for hCD45-APC-Cy7 (Biolegend) and negative for mouse CD45.1-PE (Biolegend). To determine whether estrogen can improve hematopoietic reconstitution of low number of hematopoietic progenitors, male NSG were irradiated and transplanted with low doses of human cord blood CD34+ (5×103 hCD34+). The human engraftment was analyzed as described in Example 1.

[3] = system: human hematopoietic progenitors (CB-CD34+); test: LTC-IC human bone marrow-like co-culture (hMSC + hCD34+) and CFU assay; format: cell-based
Experimental: LTC-IC was established through the co-culture of human bone marrow Mesenchymal Stromal Cells (BM-MSC) and human progenitors (CB-CD34+) to research the positive effects of the estrogens in a human context, such as an in vitro human bone marrow model. LTC-ICs were treated with vehicle or 100 µM of E2 or E4 for a week. […] Cells were plated in methycellulose media with specific hematopoietic cytokines to evaluate the hematopoietic progenitor content. After 14 days, colony forming units (CFU) were counted. Data were normalized to control groups. […] 1×10^5 human mesenchymal stromal cells (hMSC) were seeded in a p6 well and irradiated with 30 Gy next day. The following day, 5×10^4 hCD34^+ were added to the hMSC in LTC-IC media: 75% α-MEM without Phenol Red (Life Technologies), 12.5% Hyclone FBS (GE Healthcare), HS (Life Technologies), β-mercaptoethanol (Life Technologies), 0.5% PS and 1×10^−6 M Hydrocortisone (Sigma-Aldrich). 100 μM of estrogens, dissolved in ethanol, was added to the co-culture for a week, and then the cells were collected and the amount of human hematopoietic progenitors were evaluated in semisolid media supplement with specific hematopoietic cytokines (H4535, StemCell Technologies) plus 8 U/ml hEPO. After fourteen days, colony-forming units (CFU) were evaluated and normalized to the control: […]

[4] = system: human cord-blood CD34+ cells; test: Human hematopoietic engraftment in male NSG mice transplanted with 5×10^4 human cord-blood CD34+ cells; format: in vivo, mouse; details: male NSG, 5×10^4 CD34+, 2 μg daily for four days, mean +/− SEM
Experimental: Three-four months later, the animals were sacrificed and the human hematopoietic engraftment was analyzed by FACS. Human hematopoietic population was identified as the cells positive for hCD45-APC-Cy7 (Biolegend) and negative for mouse CD45.1-PE (Biolegend). In order to further examine the effect of the estrogen in HSCT, hematopoietic progenitors (hCD34+) and hematopoietic stem cells (hCD34+/hCD38−) were analyzed by FACS inside of the human population in the treated NSG described in Example 1.

human cord blood CD34+ [5] = test: Human engraftment in female NSG mice transplanted with a limited CD34+ cell dose (5×10^3); format: in vivo, mouse; details: low dose 5×10^3 hCD34+, mean +/− SEM
Description: FIG. 7A indicates human hematopoietic reconstitution after four months. […] However, in spite of this presence of endogenous estrogens, the human engraftment in female recipients was increased after E2 and more importantly after E4 treatment. FIG. 7B relates the presence of primitive hematopoietic progenitors was higher in the female mice treated with estrogens, which indicated the quality of the reconstitution. (Kruskal-Wallis test; P<0.05, 4 mice per group). […] Three-four months later, the animals were sacrificed and the human hematopoietic engraftment was analyzed by FACS. Human hematopoietic population was identified as the cells positive for hCD45-APC-Cy7 (Biolegend) and negative for mouse CD45.1-PE (Biolegend). To assess whether estrogen can improve hematopoietic reconstitution in female recipients, female NSG were irradiated and transplanted by a low doses of human cord blood CD34^+ (5×10^3 hCD34^+). The human engraftment was analyzed as described in Example 1. […] However, in spite of this presence of endogenous estrogens, the human engraftment in female recipients was increased after E2 and more importantly after E4 treatment.

[6] = 100 μM for a week, versus vehicle

Compound: C[C@]12CC[C@@H]3c4ccc(O)cc4CC[C@H]3[C@@H]1CC[C@@H]2O [E2, 17β-estradiol]
- toxicity for hematopoietic progenitor subpopulations [1]: more toxic
- % CD34+/CD38− ([1]; 10 nM): 11.99 ± 0.99%
- % HSC ([1]; 10 nM): 1.52 ± 0.24%
- % MLP ([1]; 10 nM): 4.23 ± 0.82%
- % MPP ([1]; 10 nM): 4.33 ± 0.33%
- % CD34+/CD38− ([1]; 100 nM): 10.74 ± 0.29%
- % HSC ([1]; 100 nM): 4.25 ± 2.95%
- % MLP ([1]; 100 nM): 3.72 ± 0.31%
- % MPP ([1]; 100 nM): 3.20 ± 0.76%
- % CD34+/CD38− ([1]; 1 μM): 13.43 ± 0.60%
- % HSC ([1]; 1 μM): 1.59 ± 0.15%
- % MLP ([1]; 1 μM): 3.98 ± 0.14%
- % MPP ([1]; 1 μM): 5.62 ± 0.74%
- % CD34+/CD38− ([1]; 10 μM): 17.52 ± 2.19%
- % HSC ([1]; 10 μM): 1.86 ± 0.12%
- % MLP ([1]; 10 μM): 6.79 ± 1.96%
- % MPP ([1]; 10 μM): 4.97 ± 0.23%
- % CD34+/CD38− ([1]; 100 μM): 14.52 ± 2.88%
- % HSC ([1]; 100 μM): 4.50 ± 1.91%
- % MLP ([1]; 100 μM): 1.76 ± 0.66%
- % MPP ([1]; 100 μM): 7.08 ± 1.80%
- % CD34+/CD38− ([1]; 500 μM): 11.93 ± 2.95%
- % HSC ([1]; 500 μM): 3.97 ± 2.39%
- % MLP ([1]; 500 μM): 1.01 ± 0.24%
- % MPP ([1]; 500 μM): 6.96 ± 2.54%
- proportion of engrafted mice (human engraftment above 0.1%) (human cord blood CD34+ [2]; 5×10^3 CB-CD34+): 70%
- change of the proportion of engrafted mice versus vehicle (human cord blood CD34+ [2]; limited HPC dose, engraftment above 0.1%): almost tripled
- Percentage of human hematopoietic reconstitution (human cord blood CD34+ [2]; low dose 5×103 hCD34+, mean +/− SEM): 2.12 +/− 1.05 (n = 10) %
- Normalized human CFU ([3]; 100 μM estrogen for a week, CFU after fourteen days, normalized to control, mean +/− SEM): 1.50 +/− 0.21 (n = 6)
- number of hematopoietic cells in LTC-IC [3, 6]: reduced
- total number of primitive hematopoietic progenitors in LTC-IC [3, 6]: did not change
- Percentage in the human hematopoietic population: hematopoietic stem cells ([4]; hCD34+/hCD38−): 0.52 +/− 0.07 (n = 13) %
- Percentage in the human hematopoietic population: hematopoietic progenitors ([4]; hCD34+): 9.35 +/− 0.86 (n = 13) %
- Percentage of human hematopoietic reconstitution ([4]; three-four months later): 46.05 +/− 5.98 (n = 13) %
- Percentage in the human hematopoietic population: Lymphoid ([4]; CD19+): 82.26 +/− 2.14 (n = 9) %
- Percentage in the human hematopoietic population: Myeloid ([4]; CD33+): 8.42 +/− 0.88 (n = 9) %
- Percentage of hematopoietic stem cells (hCD34+/hCD38−) in the human hematopoietic population (human cord blood CD34+ [5]): 0.34 +/− 0.12 (n = 3) %
- Percentage of human hematopoietic reconstitution (human cord blood CD34+ [5]): 23.90 +/− 4.65 (n = 3) %

Compound: C[C@]12CC[C@@H]3c4ccc(O)cc4CC[C@H]3[C@@H]1C[C@@H](O)[C@@H]2O [E3, estriol]
- toxicity for hematopoietic progenitor subpopulations [1]: more toxic
- % CD34+/CD38− ([1]; 10 nM): 14.77 ± 0.41%
- % HSC ([1]; 10 nM): 1.87 ± 0.09%
- % MLP ([1]; 10 nM): 4.94 ± 0.70%
- % MPP ([1]; 10 nM): 5.75 ± 0.21%
- % CD34+/CD38− ([1]; 100 nM): 18.28 ± 1.30%
- % HSC ([1]; 100 nM): 2.28 ± 0.03%
- % MLP ([1]; 100 nM): 6.46 ± 0.83%
- % MPP ([1]; 100 nM): 7.25 ± 0.46%
- % CD34+/CD38− ([1]; 1 μM): 14.96 ± 0.57%
- % HSC ([1]; 1 μM): 4.94 ± 2.86%
- % MLP ([1]; 1 μM): 2.72 ± 2.38%
- % MPP ([1]; 1 μM): 5.57 ± 0.12%
- % CD34+/CD38− ([1]; 10 μM): 15.89 ± 0.62%
- % HSC ([1]; 10 μM): 1.95 ± 0.13%
- % MLP ([1]; 10 μM): 5.24 ± 0.65%
- % MPP ([1]; 10 μM): 6.18 ± 0.47%
- % HSC ([1]; 100 μM): 4.13%
- % MLP ([1]; 100 μM): 0.15%
- % MPP ([1]; 100 μM): 6.44%
- % CD34+/CD38− ([1]; 500 μM): 17.92 ± 2.56%
- % HSC ([1]; 500 μM): 3.70 ± 1.51%
- % MLP ([1]; 500 μM): 4.73 ± 1.60%
- % MPP ([1]; 500 μM): 7.61 ± 2.91%

Compound: C[C@]12CC[C@@H]3c4ccc(O)cc4CC[C@H]3[C@@H]1CCC2=O [E1, estrone]
- toxicity for hematopoietic progenitor subpopulations [1]: more toxic
- % CD34+/CD38− ([1]; 10 nM): 12.32 ± 2.72%
- % HSC ([1]; 10 nM): 2.19 ± 0.65%
- % MLP ([1]; 10 nM): 3.32 ± 1.90%
- % MPP ([1]; 10 nM): 4.69 ± 0.88%
- % CD34+/CD38− ([1]; 100 nM): 12.91 ± 5.83%
- % HSC ([1]; 100 nM): 2.12 ± 0.29%
- % MLP ([1]; 100 nM): 4.12 ± 3.56%
- % MPP ([1]; 100 nM): 4.37 ± 1.47%
- % CD34+/CD38− ([1]; 1 μM): 10.11 ± 2.31%
- % HSC ([1]; 1 μM): 2.31 ± 0.45%
- % MLP ([1]; 1 μM): 1.80 ± 0.92%
- % MPP ([1]; 1 μM): 4.48 ± 1.50%
- % CD34+/CD38− ([1]; 10 μM): 10.54 ± 3.34%
- % HSC ([1]; 10 μM): 2.25 ± 0.41%
- % MLP ([1]; 10 μM): 2.92 ± 2.12%
- % MPP ([1]; 10 μM): 3.66 ± 0.89%
- % CD34+/CD38− ([1]; 100 μM): 11.02%
- % HSC ([1]; 100 μM): 0.67%
- % MLP ([1]; 100 μM): 4.46%
- % MPP ([1]; 100 μM): 3.86%
- % CD34+/CD38− ([1]; 500 μM): 14.80 ± 4.62%
- % HSC ([1]; 500 μM): 1.75 ± 0.51%
- % MLP ([1]; 500 μM): 4.64 ± 3.09%
- % MPP ([1]; 500 μM): 5.87 ± 1.34%

Reference: patent publication US20210386756A1, “IMPROVEMENTS FOR PERFORMING AND FACILITATING THE RECOVERY AFTER HEMATOPOIETIC STEM CELL TRANSPLANTATION” (Centro de Investigaciones Energéticas, Medioambientales y …, priority 2018, published 2021)
